Like-named read-outs stand apart in the source and are kept apart here.
Assays:
[1] = target: poly(ADP-ribose)polymerase (Homo sapiens, UniProt P09874); assay: Determination of inhibitory effect on poly(ADP-ribose)polymerase (enzyme activity, Ki, Km); format: biochemical
Experimental: The enzyme activity was assayed by standard procedures (Murray, B. et al., Mutation Research (1986) 165:191-198). This reference also describes the estimation of the Km (Michaelis Constant) values. The estimation of the Ki (inhibitory constant) values was performed by calculating the Km value in the presence or absence of known concentrations of the enzyme inhibitor. Standard biochemical calculations were then used to calculate the Ki value. The smaller K1 values indicate stronger inhibition. The degree of enzyme inhibition shown in the Table was estimated by measuring the enzyme activity in the presence and absence of the indicated concentrations of inhibitor.

[2] = tested on: Trypanosoma brucei rhodesiense; assay: Growth of Trypanosoma brucei rhodesiense in axenic culture (growth inhibition); format: cell-based
Experimental: (§1) 1. TRYPANOSOMES: Stabilates of two clones, GUP 2889 and GUP 2814 were used.
Prior to propagation in vitro cell free culture conditions the parasites from stabilates were expanded in CD1 (8-9 week old) female mice. Infected mouse blood obtained by cardiac puncture in EMEM* with 20 U/ml heparin was used for the preparation of blood smears for immunofluorescence analysis.
(§2) Antibody mediated lysis of a specific VAT of bloodstream form trypanosomes was performed by incubating an appropriate aliquot of a recently prepared trypanosome suspension at room temperature for 1 hour, in appropriately diluted specific antibody and guinea pig complement. The trypanosomes were observed and counted with inverted phase-contrast microscopy at a magnification of 150× to check for viability and to observe lysed trypanosomes, which appeared stumpy and vacuolated.
(§3) Cultures were initiated with aliquots of the above prepared trypanosome suspension. Duplicate T25 flasks, with 10 ml of medium were prepared for each experimental parameter examined. In each experiment the trypanosome density was determined at the initiation of the culture and at the end of the axenic culture period (usually after 18-24 hours) using a Neubaurer haemocytometer.
(§4) The instantaneous rate of switching/cell/generation, σi, has been calculated. These values of σ are estimates of the per capita rate for switching to minor VATs. However, these estimates have been made in populations manipulated to consist of a major VAT, the prevalence of which is much higher than that of minor VATs; switching from minor to major VATs has therefore been assumed to be negligible, as has interswitching between minor VATs. Growth rates, r, have been expressed as population doubling times Td, where Td=loge2/r. Switching rates values are presented in the tables as finite, of, rate estimates.
Two clones of Trypanosoma brucei rhodesiense, GUP 2889 and […] were initiated in culture with viable trypanosomes after in vitro trypanolysis of heterotype VAT 1.22 with GUPM 27.1 monoclonal antibody. Viable populations of these trypanosomes were incubated with various concentrations of the poly(ADP-Ribose)polymerase inhibitors. The effect of each concentration of inhibitor was tested in duplicate in T25 culture flasks set up for the axenic culture inhibition experiments. Growth was monitored after 24 hours of incubation at 37° C. in 4-5% CO2 in air. Relative growth inhibition and frequency of antigenic switching of were calculated.
In this assay a continuously growing bloodstream form trypanosome population was incubated in serial inhibitor dilutions in T25 culture flasks using an inoculum of 2×10^4 ·1×10^5 trypanosomes per ml. After an incubation period of 24-48 hours in axenic culture at 37° C. in a 4-5% CO2 incubator, trypanosomes were counted using a haemocytometer and growth inhibition was determined based on the number of generations (kt) of inhibitor treated cultures compared to controls. […] Growth is reduced by up to 17% when 3-N-formylluminol(3-N-FL) is present in the concentration range of 50-400 μM, Table 7.

[3] = tested on: Trypanosoma brucei rhodesiense (GUP 2814); assay: Antigenic switching in Trypanosoma brucei rhodesiense (GUP 2814) in axenic culture, ILTat 1.63 to ILTat 1.22; format: cell-based
Experimental: as §1
Specific rabbit antisera and ascites fluid against specific Variable Antigen Types were used for trypanolysis and immunofluorescence at the appropriate dilutions.
as §2, §3
The prevalences of VATs in each cultures population were determined using immunofluorescence as follows: contents of one of the duplicate flasks (or both) were transferred to a universal bottle, and the trypanosomes were sedimented by centrifugation at 3,000 rpm at room temperature in a bench-top MSE centrifuge. The trypanosomes were resuspended in 10 μl of 20%(v/v) FCS supplemented EMEM* medium. Samples of this suspension were applied as smears to clean microscope slides coated with 0.1% poly-L-Lysine for immunofluorescence (IF) analysis for the frequency of specific VATs. Prevalence estimates of VATs were based on counts of more than 1000 labeled trypanosomes per flask.
Indirect immunofluorescence on acetone-fixed trypanosomes on slides was performed essentially according to the method of van Meirvenne et al., (Ann. Soc. Belge Med. Trop. (1975) 55: 1-23), using appropriately diluted rabbit antiserum or undiluted monoclonal lantibodies derived from hybridoma culture supernatants. Trypanosomes were visualized with fluorescein isothiocyanate(FITC)-labeled conjugated anti rabbit-FITC antibodies (Sigma:No.F-0382) for VAT 1.22 and 1.3, and with anti-mouse-FITC (Sigma:No.F-0257) for VATs 1.64c, 1.63a and 1.61. These secondary antibodies were diluted in PBS (pH8.0) and also contained Evans Blue (1:10,000 w/v) and Ethidium Bromide (5 μg/ml) as a counterstain.
Estimates of the prevalence of particular trypanosome VATs were based on counts of at least 200 trypanosomes, and at least 1000 trypanosomes were counted if the frequency of positive organisms were very low.
The rate of switching was estimated essentially as described by Turner and Barry (Parasitology (1989) 99: 67-75). Briefly, the size of the trypanosome population expressing aminor VAT was calculated at the time points […] as Nt1 and Nt2 respectively, from the mean total population density and from the prevalence of that VAT in the population.
as §4
Two clones of Trypanosoma brucei rhodesiense, GUP 2889 and […] were initiated in culture with viable trypanosomes after in vitro trypanolysis of heterotype VAT 1.22 with GUPM 27.1 monoclonal antibody. Viable populations of these trypanosomes were incubated with various concentrations of the poly(ADP-Ribose)polymerase inhibitors. […]

Chain of poly(ADP-ribose)polymerase (P09874 whole entry): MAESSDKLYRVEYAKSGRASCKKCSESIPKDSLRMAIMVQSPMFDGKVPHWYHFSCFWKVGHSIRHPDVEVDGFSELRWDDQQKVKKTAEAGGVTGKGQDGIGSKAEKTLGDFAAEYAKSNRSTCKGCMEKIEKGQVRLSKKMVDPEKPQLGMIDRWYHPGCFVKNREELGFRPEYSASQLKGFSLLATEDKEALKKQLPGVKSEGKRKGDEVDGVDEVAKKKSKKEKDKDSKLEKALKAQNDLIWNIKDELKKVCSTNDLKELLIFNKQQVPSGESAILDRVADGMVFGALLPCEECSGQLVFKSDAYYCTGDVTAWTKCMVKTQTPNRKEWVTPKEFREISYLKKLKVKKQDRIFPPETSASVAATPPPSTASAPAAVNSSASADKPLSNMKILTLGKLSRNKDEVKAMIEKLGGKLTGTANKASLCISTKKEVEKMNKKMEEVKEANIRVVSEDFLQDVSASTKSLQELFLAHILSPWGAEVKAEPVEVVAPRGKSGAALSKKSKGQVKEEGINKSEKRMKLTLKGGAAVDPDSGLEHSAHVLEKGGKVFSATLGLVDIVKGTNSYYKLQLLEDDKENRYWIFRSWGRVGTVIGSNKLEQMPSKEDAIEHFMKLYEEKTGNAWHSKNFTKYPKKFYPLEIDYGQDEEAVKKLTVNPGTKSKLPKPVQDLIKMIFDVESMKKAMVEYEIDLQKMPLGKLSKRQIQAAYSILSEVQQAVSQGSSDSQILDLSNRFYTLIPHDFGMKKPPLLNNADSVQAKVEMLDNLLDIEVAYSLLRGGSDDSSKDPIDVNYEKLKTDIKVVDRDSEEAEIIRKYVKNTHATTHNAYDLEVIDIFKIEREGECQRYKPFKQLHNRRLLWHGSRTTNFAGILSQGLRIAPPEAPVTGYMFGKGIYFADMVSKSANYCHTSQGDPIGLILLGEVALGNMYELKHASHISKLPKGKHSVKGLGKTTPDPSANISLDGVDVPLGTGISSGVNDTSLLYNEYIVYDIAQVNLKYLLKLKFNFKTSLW

NC(=O)c1cccc(NC=O)c1 [Compound 1, 3-formylaminobenzamide]
inhibition at 5 µM ([1]; 5.0 μM, read-out: Inhibitor Activity (%)): 66% | Ki ([1]; poly(ADP-ribose)polymerase, read-out: Ki (Inhibition Constant)): 1.61 ± 0.15 µM | reduction in growth rate ([2]; 0.5 to 2.0 mM): 7% | kt (generation number) ([2]; GUP 2814, DHS/EMEM, 1.0 mM, control 2.44): 2.29 doublings | kt (generation number) ([2]; GUP 2814, ES/EMEM (first experiment), 1.0 mM, control 2.02): 1.56 doublings | kt (generation number) ([2]; GUP 2814, ES/EMEM (second experiment), 1.0 mM, control 2.36): 2.14 doublings | kt (generation number) ([2]; GUP 2814, ES/EMEM, 0.5 mM, control 1.95): 2.09 doublings | kt (generation number) ([2]; GUP 2814, FCS/EMEM, 1.0 mM, control 2.143): 1.92 doublings | activity at 500 µM ([2]; Trypanosoma brucei, RHODESIENSE, 0.5 mM, n = 6, control 1.00, read-out: Relative Growth Rate (S.D., n)): 105 ± 13% | activity at 1000 µM ([2]; Trypanosoma brucei, RHODESIENSE, 1.0 mM, n = 11, control 1.00, read-out: Relative Growth Rate (S.D., n)): 103 ± 23% | activity at 2000 µM ([2]; Trypanosoma brucei, RHODESIENSE, 2.0 mM, n = 6, control 1.00, read-out: Relative Growth Rate (S.D., n)): 93 ± 22% | activity at 1000 µM ([2]; Trypanosoma brucei, RHODESIENSE, GUP 2814, DHS/EMEM, 1.0 mM, control 100, read-out: Relative Growth): 93.9% | activity at 1000 µM ([2]; Trypanosoma brucei, RHODESIENSE, GUP 2814, ES/EMEM (first experiment), 1.0 mM, control 100, read-out: Relative Growth): 77.2% | activity at 1000 µM ([2]; Trypanosoma brucei, RHODESIENSE, GUP 2814, ES/EMEM (second experiment), 1.0 mM, control 100, read-out: Relative Growth): 90.8% | activity at 500 µM ([2]; Trypanosoma brucei, RHODESIENSE, GUP 2814, ES/EMEM, 0.5 mM, control 100, read-out: Relative Growth): 107% | activity at 1000 µM ([2]; Trypanosoma brucei, RHODESIENSE, GUP 2814, FCS/EMEM, 1.0 mM, control 100, read-out: Relative Growth): 89.6% | switching frequency, from ILTat 1.63 to 1.22 ([3]; 1 mM, Horse Serum (Bristol), two of three experiments): reproducible reduction of switching frequency | σf (finite switch rate per trypanosome per generation) ([3]; DHS/EMEM, 1.0 mM, control 210.8): 117.0 x10^-2 | σf (finite switch rate per trypanosome per generation) ([3]; ES/EMEM (first experiment), 1.0 mM, control 5.3): 2.26 x10^-2 | σf (finite switch rate per trypanosome per generation) ([3]; ES/EMEM (second experiment), 1.0 mM, control 2.17): 0.94 x10^-2 | σf (finite switch rate per trypanosome per generation) ([3]; ES/EMEM, 0.5 mM, control 13.65): 0.95 x10^-2 | σf (finite switch rate per trypanosome per generation) ([3]; FCS/EMEM, 1.0 mM, control 0.46): 0.72 x10^-2 | activity at 1000 µM ([3]; Trypanosoma brucei, RHODESIENSE, read-out: RAS (relative antigenic switching), DHS/EMEM, 1.0 mM, control 100): 55.5% | activity at 1000 µM ([3]; Trypanosoma brucei, RHODESIENSE, read-out: RAS (relative antigenic switching), ES/EMEM (first experiment), 1.0 mM, control 100): 42.6% | activity at 1000 µM ([3]; Trypanosoma brucei, RHODESIENSE, read-out: RAS (relative antigenic switching), ES/EMEM (second experiment), 1.0 mM, control 100): 43.5% | activity at 500 µM ([3]; Trypanosoma brucei, RHODESIENSE, read-out: RAS (relative antigenic switching), ES/EMEM, 0.5 mM, control 100): 7% | activity at 1000 µM ([3]; Trypanosoma brucei, RHODESIENSE, read-out: RAS (relative antigenic switching), FCS/EMEM, 1.0 mM, control 100): 136%

— patent US5719151A, “Substituted benzene compounds” (priority 1990, dated 1998)
